Assay results from ChEMBL document CHEMBL5505985 (Eur J Med Chem, 2024).
Activity calls are given as the source filed them. The calls are words filed in the database; no cut-off is given here.

Tests used:
[1] = molecular target: NACHT, LRR and PYD domains-containing protein 3 (Mus musculus) (UniProt Q8R4B8); assay: Inhibition of NLRP3 inflammasome in LPS-induced mouse RAW264.7 cells assessed as reduction in NLRP3 activation at 10 to 30 uM primed with LPS for 4.5 hs followed by incubation with compound for 1 hr and later stimulation with ATP for 30 mins by Western blot analysis; type: cell-based; conditions: dose 10-30 µM, time 1.5 hrs
[2] = test system: Mus musculus; assay: Antiinflammatory activity against DSS-induced ulcerative colitis BALB/c mouse assessed as attenuation of colonic length reduction at 0.25 mg/kg, po for 5 days and measured after 12 days; type: functional, organism-based; conditions: time 12.0 day
[3] = test system: RAW264.7; assay: Antiinflammatory activity in LPS-induced mouse RAW264.7 cells assessed as inhibition of ROS secretion preincubated for 1 hr followed by LPS stimulation and measured after 24 hrs by fluorescence based analysis; type: functional, cell-based; conditions: dose 2-30 µM, time 25.0 hrs
[4] = test system: RAW264.7; assay: Antiinflammatory activity in LPS-induced mouse RAW264.7 cells assessed as reduction in iNOS protien level at 10 uM preincubated for 1 hr followed by LPS stimulation and measured after 24 hrs […]; type: functional, cell-based; conditions: time 25.0 hrs
[5] = test system: Mus musculus; assay: Antiinflammatory activity against DSS-induced ulcerative colitis BALB/c mouse assessed as amelioration of inflammatory cell infiltration at 0.25 mg/kg, po for 5 days and measured after 12 days; type: functional, organism-based; conditions: time 12.0 day
[6] = test system: RAW264.7; assay: Antiinflammatory activity in LPS-induced mouse RAW264.7 cells assessed as suppression of PGE2 secretion at 2 to 30 uM preincubated for 1 hr followed by LPS stimulation and measured after 24 hrs by ELISA method; type: functional, cell-based; conditions: dose 2-30 µM, time 25.0 hrs
[7] = test system: RAW264.7; assay: Inhibition of MAPK signalling pathway in LPS induced mouse RAW264.7 cells assessed as effect on JNK phosphorylation level at 10 to 30 uM preincubated for 1 hr followed by LPS stimulation and measured after 30 mins by Westernblot analysis; type: cell-based; conditions: dose 10-30 µM, time 1.5 hrs
[8] = test system: Mus musculus; assay: Protection against DSS-induced ulcerative colitis BALB/c mouse assessed as recovery of blood sinusoids at 0.25 mg/kg, po for 5 days and measured after 12 days by H and E staining based analysis; type: functional, organism-based; conditions: time 12.0 day
[9] = molecular target: T1, Prostaglandin G/H synthase 1 (Ovis aries, UniProt P05979); assay: Inhibition of sheep COX-1 using arachidonic acid as substrate pretreated for 5 mins followed by substrate addition and measured after 2 mins by fluorescence based analysis
T1 sequence (P05979 whole entry): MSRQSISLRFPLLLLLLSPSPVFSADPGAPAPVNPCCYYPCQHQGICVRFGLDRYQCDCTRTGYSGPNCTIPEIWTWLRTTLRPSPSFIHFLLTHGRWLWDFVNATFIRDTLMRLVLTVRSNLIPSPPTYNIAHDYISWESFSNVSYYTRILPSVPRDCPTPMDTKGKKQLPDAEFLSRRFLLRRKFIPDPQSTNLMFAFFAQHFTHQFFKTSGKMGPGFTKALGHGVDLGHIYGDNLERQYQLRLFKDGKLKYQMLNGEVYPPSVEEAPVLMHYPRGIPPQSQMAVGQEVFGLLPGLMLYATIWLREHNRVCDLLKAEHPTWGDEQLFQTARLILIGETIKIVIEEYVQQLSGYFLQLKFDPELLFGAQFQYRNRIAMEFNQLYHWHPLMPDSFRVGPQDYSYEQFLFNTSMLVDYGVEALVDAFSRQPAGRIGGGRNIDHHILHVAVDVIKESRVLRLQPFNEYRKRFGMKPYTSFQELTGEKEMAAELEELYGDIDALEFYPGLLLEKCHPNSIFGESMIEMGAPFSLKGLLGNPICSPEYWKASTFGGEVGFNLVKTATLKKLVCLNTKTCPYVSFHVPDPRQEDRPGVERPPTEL

[10] = test system: Mus musculus; assay: Antiinflammatory activity against DSS-induced ulcerative colitis BALB/c mouse assessed as amelioration of crypt architecture loss at 0.25 mg/kg, po for 5 days and measured after 12 days; type: functional, organism-based; conditions: time 12.0 day
[11] = test system: RAW264.7; assay: Inhibition of MAPK signalling pathway in LPS induced mouse RAW264.7 cells assessed as effect on ERK phosphorylation level at 10 to 30 uM preincubated for 1 hr followed by LPS stimulation and measured after 30 mins by Westernblot analysis; type: cell-based; conditions: dose 10-30 µM, time 1.5 hrs
[12] = test system: RAW264.7; assay: Antiinflammatory activity in LPS-induced mouse RAW264.7 cells assessed as downregulation of TNF-alpha secretion preincubated for 1 hr followed by LPS stimulation and measured after 3 hrs by ELISA method; type: functional, cell-based; conditions: dose 2-30 µM, time 4.0 hrs
[13] = test system: RAW264.7; assay: Inhibition of MAPK signalling pathway in LPS induced mouse RAW264.7 cells assessed as effect on p38 phosphorylation level at 10 to 30 uM preincubated for 1 hr followed by LPS stimulation and measured after 30 mins by Westernblot analysis; type: cell-based; conditions: dose 10-30 µM, time 1.5 hrs
[14] = test system: RAW264.7; assay: Inhibition of LPS-induced NFkappaB activation in mouse RAW264.7 cells assessed as inhibition of IKKalpha phosphorylation level preincubated for 1 hr followed by LPS stimulation and measured after 30 mins by Westernblot analysis; type: cell-based; conditions: dose 10-30 µM, time 1.5 hrs
[15] = test system: RAW264.7; assay: Antiinflammatory activity in LPS-induced mouse RAW264.7 cells assessed as downregulation of IL-6 secretion preincubated for 1 hr followed by LPS stimulation and measured after 24 hrs by ELISA method; type: functional, cell-based; conditions: dose 2-30 µM, time 25.0 hrs
[16] = test system: Mus musculus; assay: Protection against DSS-induced ulcerative colitis BALB/c mouse assessed as recovery of cell matrix development at 0.25 mg/kg, po for 5 days and measured after 12 days by H and E staining based analysis; type: functional, organism-based; conditions: time 12.0 day
[17] = Selectivity index, ratio of IC50 for ovine COX-1 to IC50 for human COX-2
[18] = molecular target: T2, Prostaglandin G/H synthase 2 (Homo sapiens, UniProt P35354); assay: Inhibition of human recombinant COX-2 using arachidonic acid as substrate pretreated for 5 mins followed by substrate addition and measured after 2 mins by fluorescence based analysis
T2 sequence (P35354 whole entry): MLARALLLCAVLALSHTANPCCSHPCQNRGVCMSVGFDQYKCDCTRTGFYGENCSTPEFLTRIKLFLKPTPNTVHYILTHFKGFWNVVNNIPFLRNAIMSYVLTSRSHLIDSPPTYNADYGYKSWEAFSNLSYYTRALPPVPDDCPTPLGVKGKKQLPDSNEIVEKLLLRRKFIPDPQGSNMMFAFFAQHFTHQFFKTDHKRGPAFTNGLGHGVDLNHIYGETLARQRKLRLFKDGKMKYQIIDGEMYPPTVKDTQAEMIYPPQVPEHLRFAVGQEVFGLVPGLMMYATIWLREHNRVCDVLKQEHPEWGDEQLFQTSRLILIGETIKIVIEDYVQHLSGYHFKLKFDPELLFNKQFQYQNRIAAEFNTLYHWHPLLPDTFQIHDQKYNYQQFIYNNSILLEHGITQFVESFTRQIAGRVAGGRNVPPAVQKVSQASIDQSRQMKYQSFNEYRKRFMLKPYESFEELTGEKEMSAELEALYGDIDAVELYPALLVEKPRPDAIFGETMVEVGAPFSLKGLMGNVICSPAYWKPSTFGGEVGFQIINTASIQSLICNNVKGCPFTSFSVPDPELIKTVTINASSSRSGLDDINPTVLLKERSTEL

[19] = test system: Mus musculus; assay: Antiinflammatory activity against DSS-induced ulcerative colitis BALB/c mouse assessed as suppression of weight loss at 0.25 mg/kg, po for 5 days and measured on day 10; type: functional, organism-based; conditions: time 10.0 day

NACHT, LRR and PYD domains-containing protein 3 (Mus musculus), sequence (Q8R4B8 whole entry, the tested form may be a part): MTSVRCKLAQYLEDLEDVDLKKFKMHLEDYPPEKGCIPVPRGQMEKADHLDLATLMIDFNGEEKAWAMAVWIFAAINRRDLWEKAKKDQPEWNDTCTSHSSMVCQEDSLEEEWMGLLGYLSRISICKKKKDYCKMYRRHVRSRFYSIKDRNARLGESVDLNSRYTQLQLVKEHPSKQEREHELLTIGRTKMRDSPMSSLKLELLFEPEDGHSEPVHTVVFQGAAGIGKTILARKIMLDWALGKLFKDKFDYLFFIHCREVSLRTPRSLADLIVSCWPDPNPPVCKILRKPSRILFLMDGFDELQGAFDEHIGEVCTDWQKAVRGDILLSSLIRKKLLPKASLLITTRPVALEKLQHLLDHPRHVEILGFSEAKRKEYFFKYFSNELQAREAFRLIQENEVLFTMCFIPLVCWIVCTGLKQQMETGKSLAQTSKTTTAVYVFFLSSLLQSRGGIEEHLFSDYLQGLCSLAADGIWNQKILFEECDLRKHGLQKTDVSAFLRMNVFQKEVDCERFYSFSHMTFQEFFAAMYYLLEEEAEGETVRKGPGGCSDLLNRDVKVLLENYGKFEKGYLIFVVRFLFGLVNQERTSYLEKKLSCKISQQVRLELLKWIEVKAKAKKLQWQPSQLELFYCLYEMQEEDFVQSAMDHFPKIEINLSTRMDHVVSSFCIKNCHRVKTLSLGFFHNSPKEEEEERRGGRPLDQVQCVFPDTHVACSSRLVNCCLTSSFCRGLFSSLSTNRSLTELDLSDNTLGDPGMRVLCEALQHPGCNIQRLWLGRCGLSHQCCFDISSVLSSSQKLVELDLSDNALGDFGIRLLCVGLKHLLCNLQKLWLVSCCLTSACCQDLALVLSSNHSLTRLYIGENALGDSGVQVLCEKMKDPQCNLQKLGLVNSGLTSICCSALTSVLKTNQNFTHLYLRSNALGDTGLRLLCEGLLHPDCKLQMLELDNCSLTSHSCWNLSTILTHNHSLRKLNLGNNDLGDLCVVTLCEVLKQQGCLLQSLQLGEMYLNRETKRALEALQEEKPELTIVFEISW

- inhibition [1]: Active
- IC50 [9]: 26.3 µM
- Ratio IC50 [17]: 17.2
- IC50 [18]: 1.53 µM
Compound: COc1ccccc1C1=Nn2c(Cc3ccccc3Nc3c(Cl)cccc3Cl)nnc2SC1
- Activity [2]: Active
- Activity [3]: Dose-Dependent Effect
- Activity [4]: Active
- Activity [5]: Active
- Activity [6]: Active
- inhibition [7]: inactive
- Activity [8]: Active
- Activity [10]: Active
- inhibition [11]: inactive
- Activity [12]: Dose-Dependent Effect
- inhibition [13]: inactive
- inhibition [14]: Dose-Dependent Effect
- Activity [15]: Dose-Dependent Effect
- Activity [16]: Active
- Activity [19]: Active
